This is an account of results in ChEMBL document CHEMBL5465560, “Selectivity Literature for EUbOPEN Chemogenomic Library” (2024).

Each structure is given as a SMILES string.

Test [1] has as its target Serine/threonine-protein kinase Nek7 (Homo sapiens) (UniProt Q8TDX7). As to conditions: at 10 µM.
For test [2], the target named is Proto-oncogene tyrosine-protein kinase Src (Homo sapiens, UniProt P12931). The experiment in a line: Selectivity interaction (KinomeScan (DiscoverX)) EUB0000229b SRC. As to conditions: at 10 µM.
The next test deals with Histamine H3 receptor (Homo sapiens, UniProt Q9Y5N1). The experiment in a line: Selectivity interaction (GPCR panel (PDSP screen)) EUB0001079a HRH3. As to conditions: at 10 µM.
Test [3] deals with eIF-2-alpha kinase GCN2 (Homo sapiens) (UniProt Q9P2K8). The experiment in a line: Selectivity interaction (ActivX KiNativ screen (ex vivo kinase selectivity in human PBMCs)) EUB0001619a EIF2AK4. Format: cell-based. The following applies: PBMC, at 1 µM.
The target of test [4] is T1, TGF-beta receptor type-1 (Homo sapiens) (UniProt P36897).
T1 sequence (whole entry): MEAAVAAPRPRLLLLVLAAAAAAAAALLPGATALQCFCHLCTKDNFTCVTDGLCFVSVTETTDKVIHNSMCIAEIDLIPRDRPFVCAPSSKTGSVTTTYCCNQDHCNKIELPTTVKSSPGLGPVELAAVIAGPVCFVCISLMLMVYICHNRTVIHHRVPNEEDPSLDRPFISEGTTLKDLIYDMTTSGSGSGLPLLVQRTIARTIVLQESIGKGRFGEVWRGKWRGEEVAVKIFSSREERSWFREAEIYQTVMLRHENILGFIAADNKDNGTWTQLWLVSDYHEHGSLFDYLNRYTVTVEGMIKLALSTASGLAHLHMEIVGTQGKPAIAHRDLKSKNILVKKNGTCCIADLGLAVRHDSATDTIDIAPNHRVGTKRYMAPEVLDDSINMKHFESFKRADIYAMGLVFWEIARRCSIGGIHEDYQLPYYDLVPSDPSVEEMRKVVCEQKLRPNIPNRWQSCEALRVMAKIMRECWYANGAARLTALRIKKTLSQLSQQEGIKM
The experiment in a line: Selectivity interaction (KinomeScan (DiscoverX)) EUB0001049a TGFBR1. The following applies: at 1 µM.

The target of test [5] is T2, NUAK family SNF1-like kinase 2 (Homo sapiens) (UniProt Q9H093).
T2 sequence (whole entry): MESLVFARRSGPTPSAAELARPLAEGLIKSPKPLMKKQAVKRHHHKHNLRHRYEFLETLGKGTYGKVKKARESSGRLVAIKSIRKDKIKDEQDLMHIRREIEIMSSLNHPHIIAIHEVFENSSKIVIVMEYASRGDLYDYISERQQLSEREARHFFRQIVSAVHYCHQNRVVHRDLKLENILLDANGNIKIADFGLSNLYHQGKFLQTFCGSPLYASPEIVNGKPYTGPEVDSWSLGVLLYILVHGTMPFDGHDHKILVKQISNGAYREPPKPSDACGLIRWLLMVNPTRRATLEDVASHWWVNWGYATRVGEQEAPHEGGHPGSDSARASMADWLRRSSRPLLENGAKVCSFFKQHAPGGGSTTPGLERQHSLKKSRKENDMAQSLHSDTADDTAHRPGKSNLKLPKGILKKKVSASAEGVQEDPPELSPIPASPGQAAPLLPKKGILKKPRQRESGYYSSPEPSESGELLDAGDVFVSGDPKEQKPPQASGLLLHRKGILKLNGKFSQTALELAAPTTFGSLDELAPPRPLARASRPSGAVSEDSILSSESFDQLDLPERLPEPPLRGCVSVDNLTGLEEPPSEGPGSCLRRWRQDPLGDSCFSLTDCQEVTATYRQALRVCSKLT
In words: Selectivity interaction (KinomeScan (DiscoverX)) EUB0000618a NUAK2. The following applies: at 10 µM.

Test [6] concerns the target T3, Protein kinase C iota type (Homo sapiens) (UniProt P41743).
T3 sequence (whole entry): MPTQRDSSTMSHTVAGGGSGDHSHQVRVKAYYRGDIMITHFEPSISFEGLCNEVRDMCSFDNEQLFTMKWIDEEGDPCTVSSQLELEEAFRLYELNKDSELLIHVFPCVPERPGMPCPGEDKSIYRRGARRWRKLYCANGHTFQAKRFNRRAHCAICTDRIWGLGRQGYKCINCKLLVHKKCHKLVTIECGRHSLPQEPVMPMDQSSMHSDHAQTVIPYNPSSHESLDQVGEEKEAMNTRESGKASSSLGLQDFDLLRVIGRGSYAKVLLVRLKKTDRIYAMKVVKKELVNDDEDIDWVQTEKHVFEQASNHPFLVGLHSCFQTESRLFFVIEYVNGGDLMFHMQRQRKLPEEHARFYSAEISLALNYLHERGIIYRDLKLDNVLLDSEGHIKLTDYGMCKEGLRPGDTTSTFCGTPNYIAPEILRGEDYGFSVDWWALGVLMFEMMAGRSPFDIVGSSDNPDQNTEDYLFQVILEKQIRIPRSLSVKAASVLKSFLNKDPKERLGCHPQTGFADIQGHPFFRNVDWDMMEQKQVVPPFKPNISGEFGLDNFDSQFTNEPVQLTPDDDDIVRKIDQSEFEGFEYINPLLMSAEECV
The experiment in a line: Selectivity interaction (Upstate Kinase Profiler service (Millipore)) EUB0000056c PRKCI. The following applies: at 1 µM.

The target in test [7] is Tyrosine-protein kinase Lck (Homo sapiens, UniProt P06239). The experiment in a line: Selectivity interaction (KinomeScan (DiscoverX)) EUB0000595a LCK. As to conditions: at 10 µM.
Sequence of Tyrosine-protein kinase Lck (P06239 2-509 limits assumed): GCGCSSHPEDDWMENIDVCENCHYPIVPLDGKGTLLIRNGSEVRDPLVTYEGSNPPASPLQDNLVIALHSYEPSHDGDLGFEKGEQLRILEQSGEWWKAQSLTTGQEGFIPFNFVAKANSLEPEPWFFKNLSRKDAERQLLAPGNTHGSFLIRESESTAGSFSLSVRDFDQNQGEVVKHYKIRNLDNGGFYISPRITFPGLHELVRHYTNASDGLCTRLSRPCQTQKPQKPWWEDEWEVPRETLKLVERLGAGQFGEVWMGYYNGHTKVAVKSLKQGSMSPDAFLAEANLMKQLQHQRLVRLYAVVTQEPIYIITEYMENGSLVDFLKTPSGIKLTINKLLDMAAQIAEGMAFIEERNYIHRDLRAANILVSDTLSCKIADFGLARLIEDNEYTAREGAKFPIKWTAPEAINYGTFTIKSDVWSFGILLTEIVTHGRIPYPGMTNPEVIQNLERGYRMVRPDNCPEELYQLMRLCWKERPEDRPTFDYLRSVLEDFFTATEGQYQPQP

Sequence of Serine/threonine-protein kinase Nek7 (Homo sapiens) (Q8TDX7 whole entry, looked up): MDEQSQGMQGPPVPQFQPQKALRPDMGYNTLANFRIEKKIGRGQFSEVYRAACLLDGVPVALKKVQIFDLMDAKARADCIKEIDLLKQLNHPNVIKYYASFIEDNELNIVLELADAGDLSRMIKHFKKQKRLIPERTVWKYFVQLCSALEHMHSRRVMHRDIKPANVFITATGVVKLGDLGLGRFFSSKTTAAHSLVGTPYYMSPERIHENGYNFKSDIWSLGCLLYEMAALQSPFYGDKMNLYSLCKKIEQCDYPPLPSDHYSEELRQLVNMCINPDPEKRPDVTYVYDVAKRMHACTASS
Sequence of eIF-2-alpha kinase GCN2 (Homo sapiens) (Q9P2K8 whole entry): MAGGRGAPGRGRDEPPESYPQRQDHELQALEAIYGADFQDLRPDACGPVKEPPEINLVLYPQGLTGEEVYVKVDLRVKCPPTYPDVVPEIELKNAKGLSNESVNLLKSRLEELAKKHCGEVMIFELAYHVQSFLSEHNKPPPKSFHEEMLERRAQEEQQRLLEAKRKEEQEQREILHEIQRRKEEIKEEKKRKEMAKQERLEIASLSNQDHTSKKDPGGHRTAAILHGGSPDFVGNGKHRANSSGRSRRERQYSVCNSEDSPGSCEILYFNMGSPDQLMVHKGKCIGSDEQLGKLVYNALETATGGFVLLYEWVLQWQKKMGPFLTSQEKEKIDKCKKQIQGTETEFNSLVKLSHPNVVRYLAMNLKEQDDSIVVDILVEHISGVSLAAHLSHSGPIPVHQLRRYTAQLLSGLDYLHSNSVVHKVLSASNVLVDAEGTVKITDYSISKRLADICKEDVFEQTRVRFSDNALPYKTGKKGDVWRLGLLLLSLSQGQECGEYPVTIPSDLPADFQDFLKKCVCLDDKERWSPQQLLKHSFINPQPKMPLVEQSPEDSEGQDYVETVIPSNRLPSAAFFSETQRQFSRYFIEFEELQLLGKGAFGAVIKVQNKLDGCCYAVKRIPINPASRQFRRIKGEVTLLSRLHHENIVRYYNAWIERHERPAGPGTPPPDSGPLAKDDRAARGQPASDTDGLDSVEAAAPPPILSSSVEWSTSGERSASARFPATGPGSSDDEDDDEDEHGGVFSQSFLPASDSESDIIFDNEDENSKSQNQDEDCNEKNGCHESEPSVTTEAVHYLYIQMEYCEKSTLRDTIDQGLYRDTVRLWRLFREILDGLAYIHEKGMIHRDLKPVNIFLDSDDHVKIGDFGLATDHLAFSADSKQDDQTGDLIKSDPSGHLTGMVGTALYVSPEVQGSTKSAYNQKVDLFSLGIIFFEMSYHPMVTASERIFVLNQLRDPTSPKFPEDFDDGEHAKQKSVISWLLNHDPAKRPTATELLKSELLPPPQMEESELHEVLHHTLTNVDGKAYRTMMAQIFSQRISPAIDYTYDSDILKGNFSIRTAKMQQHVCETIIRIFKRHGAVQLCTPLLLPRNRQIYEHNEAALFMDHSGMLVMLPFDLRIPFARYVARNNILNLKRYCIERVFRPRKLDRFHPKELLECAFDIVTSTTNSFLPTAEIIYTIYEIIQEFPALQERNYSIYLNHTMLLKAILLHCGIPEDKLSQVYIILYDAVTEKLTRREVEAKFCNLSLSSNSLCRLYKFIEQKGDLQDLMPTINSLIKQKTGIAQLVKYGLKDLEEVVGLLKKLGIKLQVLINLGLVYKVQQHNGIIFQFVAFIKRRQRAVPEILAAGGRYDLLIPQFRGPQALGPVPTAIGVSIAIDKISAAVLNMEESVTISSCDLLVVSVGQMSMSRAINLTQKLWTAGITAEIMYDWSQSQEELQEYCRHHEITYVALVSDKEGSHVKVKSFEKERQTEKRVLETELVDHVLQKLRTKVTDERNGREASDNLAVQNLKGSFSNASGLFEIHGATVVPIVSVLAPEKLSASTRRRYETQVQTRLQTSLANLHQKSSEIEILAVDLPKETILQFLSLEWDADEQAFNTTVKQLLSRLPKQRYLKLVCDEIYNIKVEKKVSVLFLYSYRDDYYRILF
Sequence of Proto-oncogene tyrosine-protein kinase Src (P12931 2-536 limits assumed): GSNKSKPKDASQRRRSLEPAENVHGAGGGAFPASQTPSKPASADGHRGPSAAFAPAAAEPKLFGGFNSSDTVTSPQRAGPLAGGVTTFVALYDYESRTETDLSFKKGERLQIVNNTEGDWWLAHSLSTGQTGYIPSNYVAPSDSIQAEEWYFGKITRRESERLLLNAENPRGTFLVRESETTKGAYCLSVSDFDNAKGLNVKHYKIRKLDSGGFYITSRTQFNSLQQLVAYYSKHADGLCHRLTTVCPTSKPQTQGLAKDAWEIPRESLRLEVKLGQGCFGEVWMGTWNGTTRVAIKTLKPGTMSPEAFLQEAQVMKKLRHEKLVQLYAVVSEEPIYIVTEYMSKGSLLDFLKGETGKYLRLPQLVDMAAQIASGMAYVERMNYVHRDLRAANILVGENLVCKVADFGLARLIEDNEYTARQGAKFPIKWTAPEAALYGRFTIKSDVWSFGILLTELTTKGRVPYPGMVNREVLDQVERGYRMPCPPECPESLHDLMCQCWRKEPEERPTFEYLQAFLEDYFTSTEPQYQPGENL
Sequence of Histamine H3 receptor (Q9Y5N1 whole entry): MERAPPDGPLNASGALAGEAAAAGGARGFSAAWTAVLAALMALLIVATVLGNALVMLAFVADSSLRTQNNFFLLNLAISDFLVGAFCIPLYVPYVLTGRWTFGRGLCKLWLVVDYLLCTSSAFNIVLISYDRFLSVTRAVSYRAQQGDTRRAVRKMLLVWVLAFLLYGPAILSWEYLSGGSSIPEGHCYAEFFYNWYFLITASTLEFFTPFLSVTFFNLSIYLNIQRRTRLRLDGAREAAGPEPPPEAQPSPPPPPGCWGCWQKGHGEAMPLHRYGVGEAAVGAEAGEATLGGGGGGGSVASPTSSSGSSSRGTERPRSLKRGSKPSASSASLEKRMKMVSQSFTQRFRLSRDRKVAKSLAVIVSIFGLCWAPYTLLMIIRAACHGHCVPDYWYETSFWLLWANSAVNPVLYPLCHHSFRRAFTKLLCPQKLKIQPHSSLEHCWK

`Cc1cc([C@@H](C)Nc2ccccc2C(=O)O)c2nc(N3CCOCC3)cc(=O)n2c1` [AZD-6482]: in test [1], the % of control turned out to be 100%.

Regarding `COc1cc(N(C)c2ccnc3ccc(C(F)(F)F)cc23)cc(OC)c1OC`, in test [2], the % binding is 100%. As to `Nc1cnc(N2CCc3cc(S(=O)(=O)Nc4c(F)cc(Cl)cc4F)cc(N4CCCC4=O)c32)nc1` [TP-020n], the % of inhibition on Histamine H3 receptor was -1.21%. For `N#Cc1cccc(-c2c[nH]c3ncnc(N4CCOCC4)c23)c1`, the % of inhibition in test [3] worked out at 1%.

`COc1cc(Nc2nc(C)cc(-c3cnn4nc(OC)ccc34)n2)cc(C(F)(F)F)c1` returned a % of control in test [4] of 100%. In test [5], `O[C@H]1CC[C@H](Nc2ncc3nc(Nc4c(F)cc(F)cc4F)n([C@H]4CCOC4)c3n2)CC1` showed a % of control of 52%. For `Cc1ccc(-c2ccc3c(ccc4sc5c(c43)NC[C@@H](C)NC5=O)n2)cn1`, in test [6], the % of inhibition is -10%. In turn, `COCC(=O)NC/C=C/c1ccc2ncnc(Nc3ccc(Oc4ccc(C)nc4)c(C)c3)c2c1` [CP-724714] showed a % of control in test [7] of 59%.
